Laboratory results from patent US20140309295A1, “ANTIEPILEPTIC, HYPOCHOLESTEROLEMIC AND NEUROPROTECTIVE COMPOUND” (NEURON BIOPHARMA, S.A., priority 2009, published 2014).
Peptide text beside a SMILES is read from it. * marks the point of attachment. Cbz = O=C(OCc1ccccc1)*; CH2F = FC*

Key:
caspase 3/7 = assay: Inhibition of camptothecin-induced activation of caspase 3/7 in SK-N-MC cells; assay type: cell-based, human; details: 50 μM Z-VAD-fmk; 50 μM CPT
Method: The assay was performed on human neuroblastoma SK-N-MC cells in culture from the American Type Culture Collection (ATCC), in all cases strict rules of sterility were followed and the manipulation was performed in class II biological safety cabinets following European standard EN 12469. The cells were maintained in the following culture medium: Minimum Essential Medium Eagle (MEM) supplemented with 1 mM sodium pyruvate, 2 mM L-glutamine, 0.1 mM non-essential amino acids, 0.05 mg/ml gentamicin and 10% fetal bovine serum. The induction of apoptosis on the cells in culture was performed by means of incubation with camptothecin (CPT), which triggers cell apoptosis activation. The apoptosis was determined by means of the measurement of the activation of effector caspases, caspase 3 or caspase 7, for which a kit for the fluorometric detection of active caspase 3/7 (Apo-ONE® Homogeneous Caspase-3/7, Promega) was used. The active caspase 3 or 7 of the cells cause the rupture of a substrate, which leads to fluorescence emission, which is read by means of a fluorometer. The effect of the pretreatment of compound NST0037 at 10 and 40 μM on the activation of caspase 3/7 caused by 50 μM of camptothecin (CPT) in the SK-N-MC cells was thus analyzed. These cells, not exceeding 15 passages, were seeded on 96-well plates treated for adherent cells with a cell concentration of 5×10^4 cells/well, 3 wells of the plate were seeded for each condition of the assay. After 24 hours of cell incubation at 37° C. and 5% CO2, the pretreatment with NST0037 at 10 and 40 μM was performed. […] On the following day, fluorescence was measured (499/521 nm, […]).

[1] = test system: human neuroblastoma SK-N-MC cells; assay: Inhibition of camptothecin-induced apoptosis by flow cytometry (sub-G1); assay type: cell-based; details: 50 μM Z-VAD-fmk; 50 μM camptothecin
Method: The assay was performed on human neuroblastoma SK-N-MC cells in culture from the American Type Culture Collection (ATCC), in all cases strict rules of sterility were followed and the manipulation was performed in class II biological safety cabinets following European standard EN 12469. The cells were maintained in the following culture medium: Minimum Essential Medium Eagle (MEM) supplemented with 1 mM sodium pyruvate, 2 mM L-glutamine, 0.1 mM non-essential amino acids, 0.05 mg/ml gentamicin and 10% fetal bovine serum.
The inhibition caused by compound NST0037 against apoptosis (programmed cell death) caused by treatment with camptothecin which inhibits the enzyme Topoisomerase I, which prevents DNA duplication and triggers apoptotic cell death, was analyzed. These cells, not exceeding 15 passages, were seeded on 6-well plates treated for adherent cells with a cell concentration of 8×10^5 cells/well and 7×10^5 cells/well for the assay with pretreatment; 2 wells of the plate were seeded for each condition of the assay.
After 24 hours of cell incubation at 37° C. and 5% CO2, the cell treatments were performed with 2 ml of total volume for the following conditions: • Control: culture medium (medium) • Camptothecin: medium plus camptothecin 50 μM. • Camptothecin plus Z-VAD-fmk: medium plus 50 μM camptothecin plus 50 μM Z-VAD-fmk, as positive inhibition control. • Camptothecin plus NST0037: medium plus 50 μM camptothecin plus NST0037 at 10, 40 or 100 μM.
In the assay with pretreatment, the cells were previously treated with 40 μM of NST0037, 100 μM of mevalonate or both together for 24 hours and then they were treated with 50 μM camptothecin, the rest of the procedure was similar to the assay without pretreatment.
The cells were incubated (at 37° C. and 5% CO2) with these treatments for 6 hours, after which time they were collected along with their culture medium and centrifuged at 300×g for 5 minutes. The medium was removed, a washing was performed with PBS and the cells were fixed for 2 minutes with 500 μl of 70% ethanol at −20° C. Once fixed, they were centrifuged at 400×g for 5 minutes, washed with PBS and 0.05 mg/ml propidium iodide, diluted in cycling buffer (0.1% sodium citrate, 0.3% Nonidet P-40 and 0.02 mg/ml RNase) were added and they were incubated for 1 hour at 37° C. After this time they were analyzed by flow cytometry, comparing the fluorescence of propidium iodide against the amount of DNA. The percentage of apoptosis was measured on the sub-G1 region of each of the conditions.

adult zebrafish = assay: Lethality by constant exposure in water (4 days) in adult zebrafish (OECD 203); assay type: in vivo; details: for histopathology: ovary / Mortality (dead animals/total): 4 days
Method: The object of this assay is to determine the acute lethal toxicity of a substance on freshwater fish. Acute toxicity is the distinguishable adverse effect induced in an organism as a result of the exposure to a given substance for a short time period (days).
The deaths of the animals under study during the entire time of the assay were recorded as a toxicity parameter.
To that end, the fish that survived the treatment were sacrificed at 4 days post-treatment (previously anesthetized) and the samples (whole fish) were included in paraffin. The hematoxylin-eosin staining was subsequently performed in order to conduct the histopathological studies, obtaining a minimum of 6 longitudinal sections per animal, for the purpose of collecting different study areas of the same organ. The following organs were studied: brain, kidney, pancreas, intestine, eye, gills, ovary, testicle, muscle and liver.

zebrafish larvae = assay: Acute toxicity assay in zebrafish larvae (24 hours); assay type: in vivo, Danio rerio; details: for Mortality (dead larvae/total): 1 day
Method: To evaluate the biosafety of compound NST0037, its toxicological effects on the zebrafish larvae model were analyzed by means of determining the safety parameters of the OECD C15 protocol.
The fertilized eggs were obtained by natural mating of the zebrafish (Danio rerio, AB strain). A total of 8-10 pairs were used for each cross and a total of 200-250 eggs were generated on average per pair. The eggs were collected immediately after spawning and were washed with dilution water (CaCl2.2H2O2 0.29 g/L, MgSO4.7H2O2 0.12 g/L, NaHCO3 0.065 g/L, KCl 0.006 g/L), the pH being adjusted to 7.8±0.2, in accordance with EC Regulation 440/2008, method C.1, and were deposited in a Petri dish.
The embryos were developed normally until 96 hours post-fertilization in their growth medium. […] […]. Each experiment was performed in triplicate.
The studies were conducted for 24 hours of treatment, thus performing an acute toxicity assay. […].
After the time of exposure of the substances under study, the record of the mortality of the larvae was determined. […].
[…]. The percentage of healthy larvae was defined as the number of live larvae without symptoms of external physiopathological anomalies (morphological and/or behavioral), the latter being a parameter determining the biosafety of a substance under study and is complementary to the survival rates and to LD50. […].
The anomalies recorded in the study are described below: • Thrombosis in the yolk sac: it is a clot inside a blood vessel, in this case of any vessel irrigating the yolk. • Cardiac thrombosis: occurs in a cardiac vessel. • Cardiac edema (or hydrops): accumulation of fluid in the intercellular tissue space and also in the cavities of the organism. In the case of the heart, it causes the accumulation of fluid in the pericardial sac.

zebrafish embryo = assay: Biosafety in zebrafish embryo (OECD C15, semi-static, 9 days); assay type: in vivo, Danio rerio
Method: The fertilized eggs were obtained by natural mating of the zebrafish (Danio rerio, AB strain). A total of 8-10 pairs were used for each cross and a total of 200-250 eggs were generated on average per pair.
To assure exposure in the earliest stages of development, the eggs were quickly transferred (a minimum of 50 per condition) to another Petri dish with solutions of the compounds to be tested. […] Each experiment was performed in triplicate.
The studies were conducted in a total of 9 days post-fertilization, in which the treatment was renewed every day, thus conducting a semi-static assay.
The results at the end of the experiment allowed collecting the percentage of healthy larvae which reach the end of the experiment, defined as the number of live larvae and without symptoms of external physiopathological anomalies (morphological and/or behavioral), this being a parameter determining the biosafety of a substance under study and is complementary to the survival rates and to the LD50.
The anomalies recorded in the study are described below: • Intracranial thrombosis: a clot inside the blood vessel, in this case of any cerebral vessel. • Cardiac thrombosis: occurs in a cardiac vessel. • Cardiac edema (or hydrops): accumulation of fluid in the intercellular tissue space and also in the cavities of the organism. In the case of the heart, it causes the accumulation of fluid in the pericardial sac. • Malformation: a noticeable difference in the shape of the body or part of the body, or organ of the body (internal or external) compared with the average shape of the part in question.
The cardiac rhythm of the zebrafish embryos-larva was determined by means of visual analysis in stereomicroscopy, determining the heartbeat with the aid of a manual counter for a period of one minute.

## COC(=O)C[C@H](NC(=O)[C@H](C)NC(=O)[C@@H](NC(=O)OCc1ccccc1)C(C)C)C(=O)CF [Z-VAD-fmk, reference compound] (Cbz-Val-Ala-Asp(OMe)-CH2F)
Caspase 3/7
  inhibition of activation of caspase 3/7 (inhibition control): completely inhibited the activation of caspase 3/7
[1]
  inhibition of apoptosis caused by camptothecin (positive inhibition control): specifically inhibited the apoptosis caused by camptothecin

## CCC(C)(C)C(=O)O[C@H]1C[C@@H](C)C=C2C=C[C@H](C)[C@H](CC[C@@H]3C[C@@H](O)CC(=O)O3)[C@H]21 [simvastatin, reference compound]
Adult zebrafish; 30 mg/kg
  histopathology: ovary: also presented histopathological damage in the ovary
Adult zebrafish; 100 mg/Kg
  histopathology: ovary: presented ovarian damage
Adult zebrafish; Dose 1 mg/kg
  Mortality (dead animals/total): 0/7
Adult zebrafish; Dose 3.2 mg/kg
  Mortality (dead animals/total): 0/7
Adult zebrafish; Dose 10 mg/kg
  Mortality (dead animals/total): 0/7
Adult zebrafish; Dose 32 mg/kg
  Mortality (dead animals/total): 0/7
Adult zebrafish; Dose 100 mg/kg
  Mortality (dead animals/total): 6/7
Adult zebrafish; day 4 post-treatment (100 mg/kg group)
  percentage of mortality: 86%
Zebrafish larvae; 24 hours exposure
  percentage of larvae with toxicological symptomatology (anomalous appearance): induced a larger percentage of larvae with toxicological symptomatology than compound NST0037
Zebrafish larvae; Dose 10 mg/Kg
  Mortality (dead larvae/total): 0/30
Zebrafish larvae; Dose 30 mg/Kg
  Mortality (dead larvae/total): 0/30
Zebrafish larvae; Dose 100 mg/Kg
  Mortality (dead larvae/total): 0/30
Zebrafish larvae; Dose 300 mg/Kg
  Mortality (dead larvae/total): 0/30
Zebrafish larvae; Dose 1000 mg/Kg
  Mortality (dead larvae/total): 0/30
Zebrafish larvae; highest study dose (1000 mg/Kg), 24 hours
  percentage of healthy larvae: 53.3±8.8%
Zebrafish embryo; 0.2 mg/L
  percentage of larvae with malformations or anomalous appearance: significant percentage of anomalies or toxicological problems
Zebrafish embryo; high dose (2 mg/L, FIG. 24)
  survival rate of embryos-larvae: more toxic, since the reduction of the survival rate started earlier in time
Zebrafish embryo; increasing doses up to 2 mg/L, 72 hours post-treatment
  reduction of the cardiac rhythm vs controls: statistically significant reduction with respect to the controls after the dose of 0.06
Zebrafish embryo; lower dose (FIG. 25: NST0037 0.2 mg/L)
  survival rate of embryos-larvae vs controls: caused a significant reduction of the survival rate
